Reference: patent US20250257045A1, “CAGED GLUTAMATE UNLEASHED BY BLUE AND GREEN LIGHT: INNOVATIVE PHOTOSENSITIVE CONTROL” (Florida Institute of Technology, Inc., priority 2024, published 2025)

Key:
[1] = UV-Vis absorption of caged Glu compounds; assay type: physicochemical; conditions: for λMax: maximum absorbance wavelength; for ε(λMax): molar attenuation constant at λMax
Procedure: (§1) After purification, the organic solvent was removed by rotovap under vacuum and the remaining aqueous concentrate was subjected to a freeze-drying system (lyophilizer-Freezone 4.5 made by LABCONCO) to isolate the purified final product. The preparation of the caged compounds and their corresponding purifications were conducted under red light in the dark. Final products were covered with aluminum foil and stored at −20° C. until further needed. Each product was characterized by Proton Nuclear Magnetic Resonance (hereinafter “1H NMR”) and Carbon-13 Nuclear Magnetic Resonance (hereinafter “^13C NMR”) using Bruker 400 MHZ NMR spectrometer instrumentation. NMR solvents such as CDCl3 and (CD3)2CO were purchased from the Cambridge Isotope Laboratories. Chemical shifts were reported relative to the internal standard peak of tetramethylsilane (TMS). […] Referring to FIG. 10, irradiation rigs constructed of two round metal containers stacked with blue LED strips (467 nm) and green LED strips (520 nm) on their inner walls were used as photoreactors to irradiate the caged molecules in photochemical studies. The light flux was determined using liquid-phase potassium ferrioxalate actinomentry.
Referring to FIG. 6, a comprehensive assessment of 11 visible light-activated caged Glutamate (Glu) compounds was conducted using photophysical methods.

[2] = Photolysis (uncaging) kinetics under blue/green LED irradiation; quantum yield by UV and 1H NMR with ferrioxalate actinometry; assay type: physicochemical; conditions: for Φ (quantum yield / QE of uncaging): irradiation at 467 nm (TC) or 520 nm (BODIPY), LED flux 12.8 Wm-2, 23° C.; for εΦ (photo-cross-section): product of ε and Φ; for wavelength of visible light that activates / uncages the cage: single photon visible light
Procedure: as §1
The inventors studied the kinetics of uncaging of the two caged Glu designs (TC and BODIPY) and compared their efficiency of uncaging under identical conditions. They were irradiated with blue light at 467 nm and green light at 520 nm, respectively. Referring to FIG. 10, a temperature-controlled rig with purchased LED strips was set up.
The process for conducting the irradiation experiments comprised the following:
Sample Preparation: The caged molecules (containing the BODIPY photocage and Glutamate) were prepared in a solvent at a predetermined concentration. The solution was carefully prepared to ensure uniform dispersion of the molecules.
Irradiation Setup: The irradiation experiments were performed in a custom-built irradiation chamber equipped with the necessary safety measures (FIG. 10). The chamber was designed to prevent any unwanted exposure to the irradiation source and to maintain a controlled environment throughout the experiment.
Irradiation Source: The irradiation source used was from LED light Strips. This source was selected based on its wavelength range, intensity, and compatibility with the caged molecules' photochemistry. The source was positioned within the irradiation chamber to ensure an even and consistent illumination of the sample.
Sample Exposure: The sample solution was placed in a suitable container, ensuring that the solution thickness was uniform to minimize potential variations in the irradiation process. The container was positioned at a specific distance from the irradiation source, and the entire setup was shielded from external light sources to prevent interference.
Irradiation Protocol: The sample was irradiated for a predetermined duration, with the irradiation source emitting light at the desired wavelength range. The irradiation time was carefully controlled to maintain consistency across experiments.
Monitoring and Data Collection: Throughout the irradiation process, the changes in the sample's properties were monitored using spectroscopic techniques such as UV-Vis spectroscopy and NMR spectroscopy, depending on the specific properties being investigated. Data was collected at regular intervals to track the progress of the photochemical reaction.
Control Experiments: To validate the effects of irradiation, control experiments were conducted using identical conditions but without the presence of the caged molecules.
The quantification of the laser flux comprised the following:
A liquid-phase potassium ferrioxalate actinometer was prepared to measure the intensity of light in our irradiation rig, i.e., light flux, necessary for measurement of the quantum yields of various photochemical reactions.

[3] = prior art caged Glu; cited from earlier work

λMax [1] [nm] | ε(λMax) [1] [M⁻¹ cm⁻¹] | Φ (quantum yield / QE of uncaging) [2] | εΦ (photo-cross-section) [2] [M⁻¹ cm⁻¹] | Φ (quantum yield / QE of uncaging) [2]; 8 | Φ (quantum yield / QE of uncaging) ([2]; listed as Me-BODIPY-Br-Glu) | Compound | wavelength of visible light that activates / uncages the cage [2] [nm] | absorption maximum [3] [nm] | quantum yield (Φ) [3]
532 | 24000 ± 120 | 0.095 ± 0.003 | 2270.0 | – | – | CCC1=C(C)C2=C(COC(=O)NC(CCC(=O)O)C(=O)O)c3c(C)c(CC)c(C)n3[B-](C)(C)[N+]2=C1C (centres unmarked) [Me-BODIPY-Et-N-Glu (2), (((2,8-Diethyl-1,3,5,5,7,9-hexamethyl-5H-414,514-dipyrrolo[1,2-c: 2′, 1′-f] [1,3,2]diazaborinin-10-yl)methoxy)carbonyl) glutamic acid] | – | – | –
542 | 57200 ± 280 | 0.0077 ± 0.0004 | 439.0 | – | – | CCC1=C(C)C2=C(COC(=O)CCC(N)C(=O)O)c3c(C)c(CC)c(C)n3[B-](F)(F)[N+]2=C1C (centres unmarked) [F-BODIPY-Et-Glu (10), 2-Amino-5-((2,8-diethyl-5,5-difluoro-1,3,7,9-tetramethyl-5H-414,514-dipyrrolo[1,2-c: 2′, 1′-f] [1,3,2]diazaborinin-10-yl)methoxy)-5-oxopentanoic acid] | – | – | –
532 | 8213 ± 50 | 0.12 ± 0.04 | 985.6 | – | – | CC1=C(Br)C(C)=[N+]2C1=C(COC(=O)NC(CCC(=O)O)C(=O)O)c1c(C)c(Br)c(C)n1[B-]2(C)C (centres unmarked) [Me-BODIPY-Br-N-Glu (3), (((2,8-Dibromo-1,3,5,5,7,9-hexamethyl-5H-414,514-dipyrrolo[1,2-c: 2′, 1′-f] [1,3,2]diazaborinin-10-yl)methoxy)carbonyl) glutamic acid] | – | – | –
511 | 43600 ± 200 | 0.074 ± 0.002 | 3230.0 | – | – | CC1=CC(C)=[N+]2C1=C(COC(=O)CCC(N)C(=O)O)c1c(C)cc(C)n1[B-]2(C)C (centres unmarked) [Me-BODIPY-H-Glu (6), 2-Amino-5-((1,3,5,5,7,9-hexamethyl-5H-414,514-dipyrrolo[1,2-c: 2′, 1′-f] [1,3,2]diazaborinin-10-yl)methoxy)-5-oxopentanoic acid] | – | – | –
532 | 35700 ± 180 | 0.029 ± 0.001 | 1040.0 | – | – | CCC1=C(C)C2=C(COC(=O)CCC(N)C(=O)O)c3c(C)c(CC)c(C)n3[B-](C)(C)[N+]2=C1C (centres unmarked) [Me-BODIPY-Et-Glu (7), 2-Amino-5-((2,8-diethyl-1,3,5,5,7,9-hexamethyl-5H-414,514-dipyrrolo[1,2-c: 2′, 1′-f] [1,3,2]diazaborinin-10-yl)methoxy)-5-oxopentanoic acid] | – | – | –
517 | 84600 ± 500 | 0.0001 ± 0.00002 | 4.7 | – | – | CC1=CC(C)=[N+]2C1=C(COC(=O)CCC(N)C(=O)O)c1c(C)cc(C)n1[B-]2(F)F (centres unmarked) [F-BODIPY-H-Glu (9), 2-Amino-5-((5,5-difluoro-1,3,7,9-tetramethyl-5H-414,514-dipyrrolo[1,2-c: 2′, 1′-f] [1,3,2]diazaborinin-10-yl)methoxy)-5-oxopentanoic acid] | – | – | –
531 | 54200 ± 240 | 0.65 ± 0.01 | 35230.0 | 0.65 | 0.65 | CC1=C(Br)C(C)=[N+]2C1=C(COC(=O)CCC(N)C(=O)O)c1c(C)c(Br)c(C)n1[B-]2(C)C (centres unmarked) [Me-BODIPY-Br-Glu (8), 2-Amino-5-((2,8-dibromo-1,3,5,5,7,9-hexamethyl-5H-414,514-dipyrrolo[1,2-c: 2′, 1′-f] [1,3,2]diazaborinin-10-yl)methoxy)-5-oxopentanoic acid] | 540 | – | –
536 | 10030 ± 70 | 0.15 ± 0.01 | 1504.6 | – | – | CC1=C(I)C(C)=[N+]2C1=C(COC(=O)NC(CCC(=O)O)C(=O)O)c1c(C)c(I)c(C)n1[B-]2(C)C (centres unmarked) [Me-BODIPY-I-N-Glu (4), (((2,8-Diiodo-1,3,5,5,7,9-hexamethyl-5H-414,514-dipyrrolo[1,2-c: 2′, 1′-f] [1,3,2]diazaborinin-10-yl)methoxy)carbonyl) glutamic acid] | – | – | –
– | – | – | – | – | – | N[C@@H](CCC(=O)N1CCc2c(OCC(=O)O)c([N+](=O)[O-])cc([N+](=O)[O-])c21)C(=O)O [CDNI-Glu] | – | 350 | 0.5
542 | 78300 ± 400 | 0.0001 ± 0.00001 | 10.9 | – | – | CCC1=C(C)C2=C(COC(=O)NC(CCC(=O)O)C(=O)O)c3c(C)c(CC)c(C)n3[B-](F)(F)[N+]2=C1C (centres unmarked) [F-BODIPY-Et-N-Glu (5), (((2,8-Diethyl-5,5-difluoro-1,3,7,9-tetramethyl-5H-414,514-dipyrrolo[1,2-c: 2′, 1′-f] [1,3,2]diazaborinin-10-yl)methoxy)carbonyl) glutamic acid] | – | – | –
544 | 10300 ± 80 | 0.0004 ± 0.00001 | 4.2 | – | – | CC1=C(Br)C(C)=[N+]2C1=C(COC(=O)CCC(N)C(=O)O)c1c(C)c(Br)c(C)n1[B-]2(F)F (centres unmarked) [F-BODIPY-Br-Glu (11), 2-Amino-5-((2,8-dibromo-5,5-difluoro-1,3,7,9-tetramethyl-5H-414,514-dipyrrolo[1,2-c: 2′, 1′-f] [1,3,2]diazaborinin-10-yl)methoxy)-5-oxopentanoic acid] | – | – | –

Compound | λMax [1] [nm] | ε(λMax) [1] [M⁻¹ cm⁻¹] | Φ (quantum yield / QE of uncaging) [2] | εΦ (photo-cross-section) [2] [M⁻¹ cm⁻¹] | Φ (quantum yield / QE of uncaging) [2]; 8 | Φ (quantum yield / QE of uncaging) ([2]; listed as Me-BODIPY-Br-Glu) | wavelength of visible light that activates / uncages the cage [2] [nm] | absorption maximum [3] [nm] | quantum yield (Φ) [3]
7-Diethylamino-4-carboxylmethyl-thiocoumarin glutamate [TC-N-Glu (1)] | 461 | 21800 ± 100 | 0.0017 ± 0.0002 | 38.2 | – | – | 445 | – | –
